In this test the target is Beta-2 adrenergic receptor (Homo sapiens) (UniProt P07550). In words: ADRB2 activation measured by internalization – cell-based, FAP fluorogen, flow cytometry, powder set 5, dose response (AID 651912). Conditions: AM2.2-beta2AR cells, 90 min.
Beta-2 adrenergic receptor (Homo sapiens), sequence (P07550 whole entry, looked up): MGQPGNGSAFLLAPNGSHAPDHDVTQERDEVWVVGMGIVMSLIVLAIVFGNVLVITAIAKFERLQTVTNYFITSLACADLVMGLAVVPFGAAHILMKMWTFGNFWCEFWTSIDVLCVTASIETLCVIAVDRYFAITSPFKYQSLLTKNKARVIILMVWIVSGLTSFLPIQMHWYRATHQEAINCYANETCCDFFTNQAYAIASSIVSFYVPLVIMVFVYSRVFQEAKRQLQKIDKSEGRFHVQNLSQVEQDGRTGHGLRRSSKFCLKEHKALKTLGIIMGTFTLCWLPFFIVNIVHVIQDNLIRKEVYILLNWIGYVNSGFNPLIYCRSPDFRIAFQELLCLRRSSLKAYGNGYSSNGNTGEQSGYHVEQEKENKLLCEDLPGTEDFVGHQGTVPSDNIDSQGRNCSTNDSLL

As to `CC(=O)Nc1ccc(S(=O)(=O)N2CCCCC2C)cc1` (configuration not stated), the 50% effective concentration (EC50) was 80.2 nM. Regarding `CCC1CCCCN1S(=O)(=O)c1ccc(NC(C)=O)cc1` (configuration not stated), the EC50 is 132 nM. In the case of `CCC(=O)Nc1ccc(S(=O)(=O)N2CCCCC2CC)cc1` (configuration not stated) it was 4.8 nM; in that of `Cc1cccc(C(=O)Nc2ccc(S(=O)(=O)N3CCCCC3C)cc2)c1` (configuration not stated), 4030 nM. The figure for `CN(CC(=O)N1CCN(c2ccc(F)cc2)CC1)S(=O)(=O)c1ccc(Br)cc1` is 336 nM.

As to `CC1CCCCN1S(=O)(=O)c1ccc(NC(=O)c2cccnc2)cc1` (configuration not stated), the concentration for a half-maximal effect (EC50) is 134 nM.

For the compound `O=C(C1CCCN1S(=O)(=O)c1ccc(Cl)cc1)N1CCN(c2ccccn2)CC1` (configuration not stated), the EC50 was 219 nM.

The values above are taken from PubChem BioAssay AID651912 (NMMLSC, 2012).
